# Biological target: FYN (human) (UniProt P06241)
# Experiment: radiometric filter-binding kinase assay, Kinase HotSpot
# Conditions: compound 0.5 µM; ATP 10 µM
row,SMILES,residual activity [%]
1,COc1cc2nccc(Oc3ccc(NC(=S)NC(=O)c4ccccc4C)cc3)c2cc1OC,77.4
2,NC(=O)c1ccc(N(C(N)=O)c2c(F)cccc2F)nc1-c1ccc(F)cc1F,110
3,O=c1cc(-c2cccc3c2Sc2ccccc2S3)oc(N2CCOCC2)c1,88.6

# Biological target: HIPK4 (human) (UniProt Q8NE63)
# Experiment: as above
# Conditions: compound 0.5 µM; ATP 10 µM
# Sequence of HIPK4 (human) (Q8NE63 whole entry, looked up): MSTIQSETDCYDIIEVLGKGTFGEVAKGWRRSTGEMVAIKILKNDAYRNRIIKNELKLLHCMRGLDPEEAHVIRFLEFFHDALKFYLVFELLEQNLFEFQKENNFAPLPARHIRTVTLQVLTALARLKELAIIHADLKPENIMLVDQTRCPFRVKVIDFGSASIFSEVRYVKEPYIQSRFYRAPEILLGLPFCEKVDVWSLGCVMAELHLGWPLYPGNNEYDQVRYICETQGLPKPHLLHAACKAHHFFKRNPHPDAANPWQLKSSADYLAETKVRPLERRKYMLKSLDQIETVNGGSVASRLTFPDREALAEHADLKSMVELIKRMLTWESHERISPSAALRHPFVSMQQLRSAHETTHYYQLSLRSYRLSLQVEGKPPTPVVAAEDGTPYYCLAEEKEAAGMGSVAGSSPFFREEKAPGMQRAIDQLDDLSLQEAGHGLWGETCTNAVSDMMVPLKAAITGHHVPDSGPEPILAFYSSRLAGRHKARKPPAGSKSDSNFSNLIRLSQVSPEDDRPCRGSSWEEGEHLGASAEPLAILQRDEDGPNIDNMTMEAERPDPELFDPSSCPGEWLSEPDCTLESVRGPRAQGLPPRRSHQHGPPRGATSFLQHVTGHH
row,SMILES,residual activity [%]
1,O=C(Nc1ccc(Cl)cc1)c1ccccc1NCc1ccncc1,103
2,CC(C)n1cnc2c(Nc3cccc(Cl)c3)nc(NCCO)nc21,94.6
3,COc1cc2nccc(Oc3ccc(NC(=S)NC(=O)c4ccccc4C)cc3)c2cc1OC,86
4,NC(=O)c1ccc(N(C(N)=O)c2c(F)cccc2F)nc1-c1ccc(F)cc1F,90.5
5,O=c1cc(-c2cccc3c2Sc2ccccc2S3)oc(N2CCOCC2)c1,100

# Biological target: MAP4K4 (human) (UniProt O95819)
# Experiment: as above
# Conditions: compound 0.5 µM; ATP 10 µM
row,SMILES,residual activity [%]
1,O=C(Nc1ccc(Cl)cc1)c1ccccc1NCc1ccncc1,88.7
2,CC(C)n1cnc2c(Nc3cccc(Cl)c3)nc(NCCO)nc21,75.5
3,COc1cc2nccc(Oc3ccc(NC(=S)NC(=O)c4ccccc4C)cc3)c2cc1OC,87.8
4,NC(=O)c1ccc(N(C(N)=O)c2c(F)cccc2F)nc1-c1ccc(F)cc1F,108
5,O=c1cc(-c2cccc3c2Sc2ccccc2S3)oc(N2CCOCC2)c1,93.2

# Biological target: MAPK10 (human) (UniProt P53779)
# Experiment: as above
# Conditions: compound 0.5 µM; ATP 10 µM
row,SMILES,residual activity [%]
1,O=C(Nc1ccc(Cl)cc1)c1ccccc1NCc1ccncc1,89.9
2,CC(C)n1cnc2c(Nc3cccc(Cl)c3)nc(NCCO)nc21,101
3,COc1cc2nccc(Oc3ccc(NC(=S)NC(=O)c4ccccc4C)cc3)c2cc1OC,98.7
4,NC(=O)c1ccc(N(C(N)=O)c2c(F)cccc2F)nc1-c1ccc(F)cc1F,98.4
5,O=c1cc(-c2cccc3c2Sc2ccccc2S3)oc(N2CCOCC2)c1,93.6

# Biological target: MYLK2 (human) (UniProt Q9H1R3)
# Experiment: as above
# Conditions: compound 0.5 µM; ATP 10 µM
row,SMILES,residual activity [%]
1,O=C(Nc1ccc(Cl)cc1)c1ccccc1NCc1ccncc1,99.5
2,CC(C)n1cnc2c(Nc3cccc(Cl)c3)nc(NCCO)nc21,96.3
3,COc1cc2nccc(Oc3ccc(NC(=S)NC(=O)c4ccccc4C)cc3)c2cc1OC,26.8
4,NC(=O)c1ccc(N(C(N)=O)c2c(F)cccc2F)nc1-c1ccc(F)cc1F,101
5,O=c1cc(-c2cccc3c2Sc2ccccc2S3)oc(N2CCOCC2)c1,97.4

# Biological target: NEK3 (human) (UniProt P51956)
# Experiment: as above
# Conditions: compound 0.5 µM; ATP 10 µM
row,SMILES,residual activity [%]
1,O=C(Nc1ccc(Cl)cc1)c1ccccc1NCc1ccncc1,90.5
2,CC(C)n1cnc2c(Nc3cccc(Cl)c3)nc(NCCO)nc21,92.6
3,COc1cc2nccc(Oc3ccc(NC(=S)NC(=O)c4ccccc4C)cc3)c2cc1OC,99.6
4,NC(=O)c1ccc(N(C(N)=O)c2c(F)cccc2F)nc1-c1ccc(F)cc1F,96
5,O=c1cc(-c2cccc3c2Sc2ccccc2S3)oc(N2CCOCC2)c1,102

# Biological target: NEK4 (human) (UniProt P51957)
# Experiment: as above
# Conditions: compound 0.5 µM; ATP 10 µM
# Sequence of NEK4 (human) (P51957 whole entry, looked up): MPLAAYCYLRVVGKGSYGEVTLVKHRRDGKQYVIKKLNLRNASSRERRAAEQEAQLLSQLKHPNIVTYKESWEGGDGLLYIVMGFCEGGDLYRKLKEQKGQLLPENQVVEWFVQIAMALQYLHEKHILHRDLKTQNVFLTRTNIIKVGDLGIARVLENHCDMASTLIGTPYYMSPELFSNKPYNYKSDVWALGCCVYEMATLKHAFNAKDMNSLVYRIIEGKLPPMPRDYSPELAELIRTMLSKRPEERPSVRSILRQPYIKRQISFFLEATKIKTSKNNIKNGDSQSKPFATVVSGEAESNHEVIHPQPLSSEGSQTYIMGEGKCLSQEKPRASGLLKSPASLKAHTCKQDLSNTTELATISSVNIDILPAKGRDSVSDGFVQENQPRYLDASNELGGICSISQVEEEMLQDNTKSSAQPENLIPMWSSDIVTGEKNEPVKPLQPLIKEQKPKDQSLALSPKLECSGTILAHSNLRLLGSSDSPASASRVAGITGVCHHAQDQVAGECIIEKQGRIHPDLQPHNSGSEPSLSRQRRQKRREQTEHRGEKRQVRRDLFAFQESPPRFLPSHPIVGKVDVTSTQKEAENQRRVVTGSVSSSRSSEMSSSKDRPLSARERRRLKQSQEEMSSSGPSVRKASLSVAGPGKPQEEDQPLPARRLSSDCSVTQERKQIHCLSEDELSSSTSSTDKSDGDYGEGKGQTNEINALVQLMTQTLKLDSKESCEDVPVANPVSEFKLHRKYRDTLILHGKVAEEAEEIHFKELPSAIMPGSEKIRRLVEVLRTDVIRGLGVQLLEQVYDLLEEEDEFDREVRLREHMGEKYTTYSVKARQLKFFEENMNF
row,SMILES,residual activity [%]
1,O=C(Nc1ccc(Cl)cc1)c1ccccc1NCc1ccncc1,85.8
2,CC(C)n1cnc2c(Nc3cccc(Cl)c3)nc(NCCO)nc21,89.1
3,COc1cc2nccc(Oc3ccc(NC(=S)NC(=O)c4ccccc4C)cc3)c2cc1OC,97.6
4,NC(=O)c1ccc(N(C(N)=O)c2c(F)cccc2F)nc1-c1ccc(F)cc1F,104
5,O=c1cc(-c2cccc3c2Sc2ccccc2S3)oc(N2CCOCC2)c1,90

# Biological target: PDGFRA (human) (UniProt P16234)
# Experiment: as above
# Conditions: compound 0.5 µM; ATP 10 µM
# Sequence of PDGFRA (human) (P16234 whole entry, looked up): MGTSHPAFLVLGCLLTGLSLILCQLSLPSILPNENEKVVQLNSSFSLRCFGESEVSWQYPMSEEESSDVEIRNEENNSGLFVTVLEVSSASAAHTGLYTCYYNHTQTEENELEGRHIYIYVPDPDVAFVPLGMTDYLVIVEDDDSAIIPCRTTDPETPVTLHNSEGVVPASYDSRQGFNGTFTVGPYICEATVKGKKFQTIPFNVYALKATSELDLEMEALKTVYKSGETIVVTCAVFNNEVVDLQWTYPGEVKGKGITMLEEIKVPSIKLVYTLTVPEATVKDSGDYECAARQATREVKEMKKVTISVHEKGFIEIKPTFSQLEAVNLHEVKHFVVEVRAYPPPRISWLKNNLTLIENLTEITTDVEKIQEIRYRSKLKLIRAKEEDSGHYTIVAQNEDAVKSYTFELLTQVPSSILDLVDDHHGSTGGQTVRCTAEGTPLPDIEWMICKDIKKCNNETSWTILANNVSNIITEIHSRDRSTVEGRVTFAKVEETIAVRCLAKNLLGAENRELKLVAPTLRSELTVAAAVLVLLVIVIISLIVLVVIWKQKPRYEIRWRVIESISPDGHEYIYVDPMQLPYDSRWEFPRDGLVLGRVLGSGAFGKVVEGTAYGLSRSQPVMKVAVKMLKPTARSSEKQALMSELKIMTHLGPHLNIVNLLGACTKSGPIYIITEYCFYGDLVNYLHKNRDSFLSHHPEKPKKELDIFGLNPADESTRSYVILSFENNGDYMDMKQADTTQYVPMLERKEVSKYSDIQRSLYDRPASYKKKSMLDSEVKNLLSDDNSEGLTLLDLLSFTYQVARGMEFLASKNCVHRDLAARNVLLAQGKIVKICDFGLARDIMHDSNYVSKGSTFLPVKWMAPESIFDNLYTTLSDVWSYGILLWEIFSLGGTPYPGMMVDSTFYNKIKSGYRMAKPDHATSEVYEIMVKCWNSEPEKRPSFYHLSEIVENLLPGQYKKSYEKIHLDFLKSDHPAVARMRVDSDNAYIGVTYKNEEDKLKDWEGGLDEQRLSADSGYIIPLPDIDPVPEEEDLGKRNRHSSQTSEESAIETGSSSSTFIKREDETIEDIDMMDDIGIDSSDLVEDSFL
row,SMILES,residual activity [%]
1,O=C(Nc1ccc(Cl)cc1)c1ccccc1NCc1ccncc1,81.3
2,CC(C)n1cnc2c(Nc3cccc(Cl)c3)nc(NCCO)nc21,96.4
3,COc1cc2nccc(Oc3ccc(NC(=S)NC(=O)c4ccccc4C)cc3)c2cc1OC,12.5
4,NC(=O)c1ccc(N(C(N)=O)c2c(F)cccc2F)nc1-c1ccc(F)cc1F,102
5,O=c1cc(-c2cccc3c2Sc2ccccc2S3)oc(N2CCOCC2)c1,101

# Biological target: PNCK (human) (UniProt Q6P2M8)
# Experiment: as above
# Conditions: compound 0.5 µM; ATP 10 µM
row,SMILES,residual activity [%]
1,O=C(Nc1ccc(Cl)cc1)c1ccccc1NCc1ccncc1,94.8
2,CC(C)n1cnc2c(Nc3cccc(Cl)c3)nc(NCCO)nc21,100
3,COc1cc2nccc(Oc3ccc(NC(=S)NC(=O)c4ccccc4C)cc3)c2cc1OC,93.2
4,NC(=O)c1ccc(N(C(N)=O)c2c(F)cccc2F)nc1-c1ccc(F)cc1F,108
5,O=c1cc(-c2cccc3c2Sc2ccccc2S3)oc(N2CCOCC2)c1,109

# Biological target: PRKCE (human) (UniProt Q02156)
# Experiment: as above
# Conditions: compound 0.5 µM; ATP 10 µM
row,SMILES,residual activity [%]
1,O=C(Nc1ccc(Cl)cc1)c1ccccc1NCc1ccncc1,97
2,CC(C)n1cnc2c(Nc3cccc(Cl)c3)nc(NCCO)nc21,93.6
3,COc1cc2nccc(Oc3ccc(NC(=S)NC(=O)c4ccccc4C)cc3)c2cc1OC,99.7
4,NC(=O)c1ccc(N(C(N)=O)c2c(F)cccc2F)nc1-c1ccc(F)cc1F,101
5,O=c1cc(-c2cccc3c2Sc2ccccc2S3)oc(N2CCOCC2)c1,109

# Biological target: ROCK2 (human) (UniProt O75116)
# Experiment: as above
# Conditions: compound 0.5 µM; ATP 10 µM
row,SMILES,residual activity [%]
1,O=C(Nc1ccc(Cl)cc1)c1ccccc1NCc1ccncc1,93.8
2,CC(C)n1cnc2c(Nc3cccc(Cl)c3)nc(NCCO)nc21,97.5
3,COc1cc2nccc(Oc3ccc(NC(=S)NC(=O)c4ccccc4C)cc3)c2cc1OC,92.5
4,NC(=O)c1ccc(N(C(N)=O)c2c(F)cccc2F)nc1-c1ccc(F)cc1F,97.7
5,O=c1cc(-c2cccc3c2Sc2ccccc2S3)oc(N2CCOCC2)c1,109

# Biological target: RPS6KA2 KD1 KD2 (human) (UniProt Q15349)
# Experiment: as above
# Conditions: compound 0.5 µM; ATP 10 µM
row,SMILES,residual activity [%]
1,O=C(Nc1ccc(Cl)cc1)c1ccccc1NCc1ccncc1,94.1
2,CC(C)n1cnc2c(Nc3cccc(Cl)c3)nc(NCCO)nc21,62.1
3,COc1cc2nccc(Oc3ccc(NC(=S)NC(=O)c4ccccc4C)cc3)c2cc1OC,91.1
4,NC(=O)c1ccc(N(C(N)=O)c2c(F)cccc2F)nc1-c1ccc(F)cc1F,97.5
5,O=c1cc(-c2cccc3c2Sc2ccccc2S3)oc(N2CCOCC2)c1,81.4

# Biological target: RPS6KA4 KD2 (human) (UniProt O75676)
# Experiment: as above
# Conditions: compound 0.5 µM; ATP 10 µM
row,SMILES,residual activity [%]
1,O=C(Nc1ccc(Cl)cc1)c1ccccc1NCc1ccncc1,90.2
2,CC(C)n1cnc2c(Nc3cccc(Cl)c3)nc(NCCO)nc21,83.8
3,COc1cc2nccc(Oc3ccc(NC(=S)NC(=O)c4ccccc4C)cc3)c2cc1OC,99.7
4,NC(=O)c1ccc(N(C(N)=O)c2c(F)cccc2F)nc1-c1ccc(F)cc1F,99
5,O=c1cc(-c2cccc3c2Sc2ccccc2S3)oc(N2CCOCC2)c1,88.1

# Biological target: RPS6KB1 (human) (UniProt P23443)
# Experiment: as above
# Conditions: compound 0.5 µM; ATP 10 µM
row,SMILES,residual activity [%]
1,O=C(Nc1ccc(Cl)cc1)c1ccccc1NCc1ccncc1,92.5
2,CC(C)n1cnc2c(Nc3cccc(Cl)c3)nc(NCCO)nc21,93.3
3,COc1cc2nccc(Oc3ccc(NC(=S)NC(=O)c4ccccc4C)cc3)c2cc1OC,98
4,NC(=O)c1ccc(N(C(N)=O)c2c(F)cccc2F)nc1-c1ccc(F)cc1F,100
5,O=c1cc(-c2cccc3c2Sc2ccccc2S3)oc(N2CCOCC2)c1,91.5

# Biological target: SLK (human) (UniProt Q9H2G2)
# Experiment: as above
# Conditions: compound 0.5 µM; ATP 10 µM
row,SMILES,residual activity [%]
1,O=C(Nc1ccc(Cl)cc1)c1ccccc1NCc1ccncc1,86.6
2,CC(C)n1cnc2c(Nc3cccc(Cl)c3)nc(NCCO)nc21,84.8
3,COc1cc2nccc(Oc3ccc(NC(=S)NC(=O)c4ccccc4C)cc3)c2cc1OC,6.2
4,NC(=O)c1ccc(N(C(N)=O)c2c(F)cccc2F)nc1-c1ccc(F)cc1F,90.7
5,O=c1cc(-c2cccc3c2Sc2ccccc2S3)oc(N2CCOCC2)c1,93.5

# Biological target: SRC (human) (UniProt P12931)
# Experiment: as above
# Conditions: compound 0.5 µM; ATP 10 µM
row,SMILES,residual activity [%]
1,O=C(Nc1ccc(Cl)cc1)c1ccccc1NCc1ccncc1,88.8
2,CC(C)n1cnc2c(Nc3cccc(Cl)c3)nc(NCCO)nc21,68.9
3,COc1cc2nccc(Oc3ccc(NC(=S)NC(=O)c4ccccc4C)cc3)c2cc1OC,71.7
4,NC(=O)c1ccc(N(C(N)=O)c2c(F)cccc2F)nc1-c1ccc(F)cc1F,109
5,O=c1cc(-c2cccc3c2Sc2ccccc2S3)oc(N2CCOCC2)c1,106

# Biological target: SRPK1 (human) (UniProt Q96SB4)
# Experiment: as above
# Conditions: compound 0.5 µM; ATP 10 µM
# Sequence of SRPK1 (human) (Q96SB4 whole entry, looked up): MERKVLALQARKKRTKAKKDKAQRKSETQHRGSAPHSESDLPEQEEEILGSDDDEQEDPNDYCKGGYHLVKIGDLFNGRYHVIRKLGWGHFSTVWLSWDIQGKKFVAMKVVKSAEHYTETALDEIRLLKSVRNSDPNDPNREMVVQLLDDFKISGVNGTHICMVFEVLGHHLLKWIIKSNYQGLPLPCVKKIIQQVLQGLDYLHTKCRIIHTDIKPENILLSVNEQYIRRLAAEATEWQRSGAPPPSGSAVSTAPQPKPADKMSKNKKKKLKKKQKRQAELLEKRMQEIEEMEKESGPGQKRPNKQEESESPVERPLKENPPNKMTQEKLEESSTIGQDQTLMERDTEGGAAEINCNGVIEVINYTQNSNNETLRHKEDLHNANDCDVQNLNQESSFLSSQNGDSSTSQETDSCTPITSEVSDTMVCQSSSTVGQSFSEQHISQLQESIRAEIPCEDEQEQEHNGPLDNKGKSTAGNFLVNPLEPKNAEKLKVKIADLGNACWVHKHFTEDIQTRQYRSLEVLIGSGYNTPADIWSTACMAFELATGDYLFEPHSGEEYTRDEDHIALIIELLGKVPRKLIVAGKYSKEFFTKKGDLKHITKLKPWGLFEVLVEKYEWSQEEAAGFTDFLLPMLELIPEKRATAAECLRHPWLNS
row,SMILES,residual activity [%]
1,O=C(Nc1ccc(Cl)cc1)c1ccccc1NCc1ccncc1,109
2,CC(C)n1cnc2c(Nc3cccc(Cl)c3)nc(NCCO)nc21,61.7
3,COc1cc2nccc(Oc3ccc(NC(=S)NC(=O)c4ccccc4C)cc3)c2cc1OC,98
4,NC(=O)c1ccc(N(C(N)=O)c2c(F)cccc2F)nc1-c1ccc(F)cc1F,99
5,O=c1cc(-c2cccc3c2Sc2ccccc2S3)oc(N2CCOCC2)c1,105

# Biological target: STK24 (human) (UniProt Q9Y6E0)
# Experiment: as above
# Conditions: compound 0.5 µM; ATP 10 µM
row,SMILES,residual activity [%]
1,O=C(Nc1ccc(Cl)cc1)c1ccccc1NCc1ccncc1,92.6
2,CC(C)n1cnc2c(Nc3cccc(Cl)c3)nc(NCCO)nc21,87.7
3,COc1cc2nccc(Oc3ccc(NC(=S)NC(=O)c4ccccc4C)cc3)c2cc1OC,101
4,NC(=O)c1ccc(N(C(N)=O)c2c(F)cccc2F)nc1-c1ccc(F)cc1F,105
5,O=c1cc(-c2cccc3c2Sc2ccccc2S3)oc(N2CCOCC2)c1,97.8

# Biological target: TTK (human) (UniProt P33981)
# Experiment: as above
# Conditions: compound 0.5 µM; ATP 10 µM
# Sequence of TTK (human) (P33981 whole entry, looked up): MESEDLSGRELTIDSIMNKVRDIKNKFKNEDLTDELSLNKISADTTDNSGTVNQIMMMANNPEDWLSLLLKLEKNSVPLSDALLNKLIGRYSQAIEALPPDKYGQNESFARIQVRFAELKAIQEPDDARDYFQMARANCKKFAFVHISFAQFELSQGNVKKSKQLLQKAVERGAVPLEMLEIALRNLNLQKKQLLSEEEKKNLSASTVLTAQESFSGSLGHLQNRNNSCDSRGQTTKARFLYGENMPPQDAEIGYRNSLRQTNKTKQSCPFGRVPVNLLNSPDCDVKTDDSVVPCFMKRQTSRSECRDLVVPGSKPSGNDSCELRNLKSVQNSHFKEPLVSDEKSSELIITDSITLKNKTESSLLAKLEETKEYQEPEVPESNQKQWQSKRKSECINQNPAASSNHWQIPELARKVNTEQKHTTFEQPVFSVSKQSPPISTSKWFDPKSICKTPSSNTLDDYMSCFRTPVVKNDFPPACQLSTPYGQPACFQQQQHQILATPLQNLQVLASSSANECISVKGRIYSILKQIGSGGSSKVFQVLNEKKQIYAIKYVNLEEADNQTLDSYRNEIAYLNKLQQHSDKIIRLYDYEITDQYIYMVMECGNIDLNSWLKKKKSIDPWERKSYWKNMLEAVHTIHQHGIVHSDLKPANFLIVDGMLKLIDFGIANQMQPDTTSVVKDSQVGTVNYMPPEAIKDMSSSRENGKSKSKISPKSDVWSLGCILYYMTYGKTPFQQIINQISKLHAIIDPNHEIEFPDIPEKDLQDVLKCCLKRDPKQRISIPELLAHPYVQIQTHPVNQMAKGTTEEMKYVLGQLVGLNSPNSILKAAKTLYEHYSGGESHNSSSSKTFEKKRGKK
row,SMILES,residual activity [%]
1,O=C(Nc1ccc(Cl)cc1)c1ccccc1NCc1ccncc1,102
2,CC(C)n1cnc2c(Nc3cccc(Cl)c3)nc(NCCO)nc21,82.5
3,COc1cc2nccc(Oc3ccc(NC(=S)NC(=O)c4ccccc4C)cc3)c2cc1OC,101
4,NC(=O)c1ccc(N(C(N)=O)c2c(F)cccc2F)nc1-c1ccc(F)cc1F,98.8
5,O=c1cc(-c2cccc3c2Sc2ccccc2S3)oc(N2CCOCC2)c1,106

# Biological target: TYK2 JH1 catalytic (human) (UniProt P29597)
# Experiment: as above
# Conditions: compound 0.5 µM; ATP 10 µM
row,SMILES,residual activity [%]
1,O=C(Nc1ccc(Cl)cc1)c1ccccc1NCc1ccncc1,92.1
2,CC(C)n1cnc2c(Nc3cccc(Cl)c3)nc(NCCO)nc21,105
3,COc1cc2nccc(Oc3ccc(NC(=S)NC(=O)c4ccccc4C)cc3)c2cc1OC,88.5
4,NC(=O)c1ccc(N(C(N)=O)c2c(F)cccc2F)nc1-c1ccc(F)cc1F,93.5
5,O=c1cc(-c2cccc3c2Sc2ccccc2S3)oc(N2CCOCC2)c1,95.8

# Biological target: ULK2 (human) (UniProt Q8IYT8)
# Experiment: as above
# Conditions: compound 0.5 µM; ATP 10 µM
# Sequence of ULK2 (human) (Q8IYT8 whole entry, looked up): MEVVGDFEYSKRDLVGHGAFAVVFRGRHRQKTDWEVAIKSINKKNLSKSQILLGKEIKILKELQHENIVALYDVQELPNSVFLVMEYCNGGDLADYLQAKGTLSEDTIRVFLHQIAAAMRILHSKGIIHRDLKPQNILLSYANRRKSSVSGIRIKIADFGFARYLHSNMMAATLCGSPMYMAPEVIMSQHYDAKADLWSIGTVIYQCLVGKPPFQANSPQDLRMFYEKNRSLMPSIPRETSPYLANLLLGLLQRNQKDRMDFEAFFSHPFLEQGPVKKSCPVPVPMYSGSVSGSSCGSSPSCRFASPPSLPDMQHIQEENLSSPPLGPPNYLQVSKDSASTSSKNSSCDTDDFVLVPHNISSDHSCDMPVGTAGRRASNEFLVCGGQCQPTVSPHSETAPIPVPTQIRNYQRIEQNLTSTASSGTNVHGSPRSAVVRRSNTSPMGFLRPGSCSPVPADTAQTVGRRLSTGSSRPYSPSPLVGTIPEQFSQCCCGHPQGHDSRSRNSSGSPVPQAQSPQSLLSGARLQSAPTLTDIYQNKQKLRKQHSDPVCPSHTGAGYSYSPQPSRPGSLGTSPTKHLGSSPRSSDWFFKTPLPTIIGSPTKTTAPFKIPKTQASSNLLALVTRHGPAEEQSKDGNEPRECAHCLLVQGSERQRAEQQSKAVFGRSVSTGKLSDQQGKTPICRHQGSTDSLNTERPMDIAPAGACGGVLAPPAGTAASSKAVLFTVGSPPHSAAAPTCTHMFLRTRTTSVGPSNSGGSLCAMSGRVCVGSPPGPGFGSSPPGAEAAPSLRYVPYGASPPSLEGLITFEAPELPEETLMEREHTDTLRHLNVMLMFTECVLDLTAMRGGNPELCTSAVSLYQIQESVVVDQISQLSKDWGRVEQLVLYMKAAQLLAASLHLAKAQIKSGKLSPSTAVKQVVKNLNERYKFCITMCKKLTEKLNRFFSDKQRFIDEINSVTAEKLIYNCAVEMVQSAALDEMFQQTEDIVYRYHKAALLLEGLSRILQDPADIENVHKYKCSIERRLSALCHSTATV
row,SMILES,residual activity [%]
1,O=C(Nc1ccc(Cl)cc1)c1ccccc1NCc1ccncc1,104
2,CC(C)n1cnc2c(Nc3cccc(Cl)c3)nc(NCCO)nc21,89
3,COc1cc2nccc(Oc3ccc(NC(=S)NC(=O)c4ccccc4C)cc3)c2cc1OC,88.8
4,NC(=O)c1ccc(N(C(N)=O)c2c(F)cccc2F)nc1-c1ccc(F)cc1F,101
5,O=c1cc(-c2cccc3c2Sc2ccccc2S3)oc(N2CCOCC2)c1,123

# — the kinase profiling compilation of Christmann-Franck et al. (2016)
